This is an account of results in patent US8497240B2 (priority 2006, dated 2013).

“And” between values parts separate entries of the source, which are not always exact repeats. Equal values may be shown once. Read-outs that look alike come from different tables or passages of the source. Where only a bound is given, the exact number is not on record here.

One assay has as its target T1, human GIP receptor (Homo sapiens, UniProt P48546).
T1 construct: expressed in transfected cells; host or cells: HEK293 (HEK-GIPR), membranes
T1 sequence (P48546 22-466): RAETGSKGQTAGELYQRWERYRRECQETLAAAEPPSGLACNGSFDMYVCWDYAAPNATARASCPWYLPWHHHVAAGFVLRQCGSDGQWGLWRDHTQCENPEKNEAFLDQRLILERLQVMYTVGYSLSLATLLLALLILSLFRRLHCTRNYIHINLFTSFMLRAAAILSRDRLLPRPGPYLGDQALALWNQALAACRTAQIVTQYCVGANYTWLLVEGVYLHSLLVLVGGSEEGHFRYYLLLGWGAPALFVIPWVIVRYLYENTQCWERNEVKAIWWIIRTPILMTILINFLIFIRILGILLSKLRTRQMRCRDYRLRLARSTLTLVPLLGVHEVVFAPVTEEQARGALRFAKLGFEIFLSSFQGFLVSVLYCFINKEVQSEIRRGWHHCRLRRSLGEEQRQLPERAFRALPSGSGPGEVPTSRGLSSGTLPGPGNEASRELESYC
Kind of assay: biochemical. Format: binding.

Assay [1] is classed as in vivo, NIH/Swiss mice. Particulars: 30 nmol/kg.
Experimental: (§1) In FIG. 3A, bars represent mean±sd, n=6-10. […] Gavage (1.5 g/kg) was given at t=0, Sample was taken at t=30 min. […] In FIG. 3B, points represent mean±sem, n=8-15.
Peptide was injected IP at t=−5 minutes into 4-hour fasted NIH/Swiss female mice. […] In FIG. 17 points represent mean+/−sem. […] Samples were taken at t=60, t=120 and t=180.
Assay [2] is classed as in vivo, NIH/Swiss mice. Particulars: 80 nmol/kg, AUC240.
Experimental: as §1
Points represent mean±sem.
Assay [3] in a line: IVGTT duration of action assay (single SC injection before glucose). Type of assay: in vivo, rat. Particulars: compared with 0601GIP3794 (794), dosed at −120 min.
Experimental: To determine a duration of action using the IVGTT assay, the sample was injected SC as a single injection at one time point indicated (e.g., t=−240, −120, −60 or −30) prior to administration of glucose. IV glucose was given at t=0.
The mark [4] stands for this setting: read-out: GIP RBA (% Inh 10 nM).
Where [5] appears, read: read-out: (% Inh 10 nm, GIP-LF Assay).

For the compound `CC[C@H](C)[C@H](NC(=O)[C@H](CO)NC(=O)[C@H](Cc1ccc(O)cc1)NC(=O)[C@H](CC(=O)O)NC(=O)[C@H](CO)NC(=O)[C@@H](NC(=O)[C@H](Cc1ccccc1)NC(=O)[C@@H](NC(=O)CNC(=O)[C@H](CCC(=O)O)NC(=O)[C@@H](C)NC(=O)[C@@H](N)Cc1ccc(O)cc1)[C@@H](C)O)[C@@H](C)CC)C(=O)N[C@@H](C)C(=O)N[C@@H](CCSC)C(=O)N[C@@H](CC(=O)O)C(=O)N[C@@H](CCCCN)C(=O)N[C@H](C(=O)N[C@@H](Cc1c[nH]cn1)C(=O)N[C@@H](CCC(N)=O)C(=O)N[C@@H](CCC(N)=O)C(=O)N[C@@H](CC(=O)O)C(=O)N[C@@H](Cc1ccccc1)C(=O)N[C@H](C(=O)N[C@@H](CC(N)=O)C(=O)N[C@@H](Cc1c[nH]c2ccccc12)C(=O)N[C@@H](CC(C)C)C(=O)N[C@@H](CC(C)C)C(=O)N[C@@H](C)C(=O)N[C@@H](CCC(N)=O)C(=O)N[C@@H](CCCCN)C(=O)N1CCC[C@H]1C(=O)N[C@@H](CCCCN)C(=O)NCC(=O)N[C@@H](CCCCN)C(=O)NCC(=O)N[C@@H](CCCCN)C(=O)N[C@@H](CO)C(N)=O)C(C)C)[C@@H](C)CC` [0601GIP4700], at human GIP receptor (setting [4]), the inhibition at 0.01 µM came out at 86.6%. The “OGTT/GL (%)” value in assay [1] is on record as −21, 30%. For the same compound, the “Basal Glucose Lowering at Peptide Conc. of 80 nmol/kg” value in assay [2] was −6%, AUC240.

As for `CC[C@H](C)[C@H](NC(=O)[C@H](CCCCN)NC(=O)[C@H](CC(=O)O)NC(=O)[C@H](CC(C)C)NC(=O)[C@H](C)NC(=O)[C@@H](NC(=O)[C@H](CO)NC(=O)[C@H](Cc1ccc(O)cc1)NC(=O)[C@H](CC(=O)O)NC(=O)[C@H](CO)NC(=O)[C@@H](NC(=O)[C@H](Cc1ccccc1)NC(=O)[C@@H](NC(=O)CNC(=O)[C@H](CCC(=O)O)NC(=O)[C@@H](C)NC(=O)[C@H](Cc1ccc(O)cc1)NC(=O)[C@@H](N)CC(C)C)[C@@H](C)O)[C@@H](C)CC)[C@@H](C)CC)C(=O)N[C@@H](C)C(=O)N[C@@H](CCC(N)=O)C(=O)N[C@@H](CCC(N)=O)C(=O)N[C@@H](CCC(=O)O)C(=O)N[C@@H](Cc1ccccc1)C(=O)N[C@H](C(=O)N[C@@H](CC(N)=O)C(=O)N[C@@H](Cc1c[nH]c2ccccc12)C(=O)N[C@@H](CC(C)C)C(=O)N[C@@H](CC(C)C)C(=O)N[C@@H](C)C(=O)N[C@@H](CCC(N)=O)C(=O)N[C@@H](CCCCN)C(=O)N1CCC[C@H]1C(=O)N[C@@H](CCCCN)C(=O)N[C@@H](CCCCN)C(=O)N[C@H](C(=O)N[C@@H](CCCNC(=N)N)C(=O)N[C@@H](Cc1ccc(O)cc1)C(=O)N[C@@H](CO)C(N)=O)[C@@H](C)CC)C(C)C` [0601GIP4802], the inhibition at 0.01 µM at human GIP receptor (setting [5]) and at human GIP receptor (setting [4]) was 87.3% each time. In addition, in assay [1], the “OGTT/GL (%)” value is −28, %. Besides, in assay [3], the “Duration In The Rat IVGTT Assay” value was <794 @ −120 min.

Consider `CC[C@H](C)[C@H](NC(=O)[C@H](CO)NC(=O)[C@H](Cc1ccc(O)cc1)NC(=O)[C@H](CC(=O)O)NC(=O)[C@H](CO)NC(=O)[C@@H](NC(=O)[C@H](Cc1ccccc1)NC(=O)[C@@H](NC(=O)CNC(=O)[C@H](CCC(=O)O)NC(=O)[C@@H](C)NC(=O)[C@@H](N)Cc1ccc(O)cc1)[C@@H](C)O)[C@@H](C)CC)C(=O)N[C@@H](C)C(=O)N[C@@H](CC(C)C)C(=O)N[C@@H](CC(=O)O)C(=O)N[C@@H](CCCCN)C(=O)N[C@H](C(=O)N[C@@H](Cc1c[nH]cn1)C(=O)N[C@@H](CCC(N)=O)C(=O)N[C@@H](CCC(N)=O)C(=O)N[C@@H](CC(=O)O)C(=O)N[C@@H](Cc1ccccc1)C(=O)N[C@H](C(=O)N[C@@H](CC(N)=O)C(=O)N[C@@H](Cc1c[nH]c2ccccc12)C(=O)N[C@@H](CC(C)C)C(=O)N[C@@H](CC(C)C)C(=O)N[C@@H](C)C(=O)N[C@@H](CCC(N)=O)C(=O)N[C@@H](CCCCN)C(=O)N1CCC[C@H]1C(=O)N[C@@H](CCCCN)C(=O)N[C@@H](CCCCN)C(=O)N[C@H](C(=O)N[C@@H](CCCNC(=N)N)C(=O)N[C@@H](Cc1ccc(O)cc1)C(=O)N[C@@H](CO)C(N)=O)[C@@H](C)CC)C(C)C)[C@@H](C)CC` [0601GIP4807], for which the inhibition at 0.01 µM on human GIP receptor (setting [5]) and at human GIP receptor (setting [4]) was 96.1% each time. In assay [1], the “OGTT/GL (%)” value was −27, % and −27, 30%. Moreover, in assay [3], the “Duration In The Rat IVGTT Assay” value is reported as <794 @ −120 min.
